Reference: patent US8541464B2, “Treatment of atrial fibrillation” (HUYA Biosciences International LLC, priority 2009, dated 2013)
Where “and” joins values, the source holds several entries; their conditions need not be identical. Identical values can stand only once.

System: Cynomolgus monkeys
Test: Cardiovascular safety in anesthetized Cynomolgus monkeys, escalating 15-minute IV infusions
Assay type: in vivo, Cynomolgus monkey
Experimental: Female Cynomolgus monkeys were administered morphine (2 mg/kg subcutaneously) prior to induction of anesthesia. Monkeys were anesthetized with 1% α-chloralose (100 mg/kg intravenous), followed by a constant infusion of α-chloralose 40 mg/kg/hr, IV which was reduced to 30 mg/kg/hr approximately 92 to 98 min pre treatment due to low blood pressure. Monkeys were placed on a heating pad set to maintain the animal's body temperature at approximately 37° C. Body temperature was monitored throughout the experiment via a rectal thermometer or via the Swan Ganz (thermodilution catheter) once implanted. Monkeys were intubated and placed on a ventilator supplemented with oxygen to maintain oxygenation within the normal physiological range. The animals were mechanically ventilated at a rate of 12 breaths/minute and a pressure of 17-18 cm H2O. The following parameters were regularly monitored in order to ensure proper ventilation of the animals but are not reported: SpO2, inspiratory and expiratory CO2, inspiratory O2 and respiratory rate.
A Swan Ganz (thermodilution catheter) was inserted into the right femoral vein via phlebotomy and advanced into the pulmonary artery for cardiac output measurements. A catheter was inserted in the left femoral artery via an arteriotomy for blood gas determination. Another catheter was inserted in the left femoral vein for blood collection for toxicokinetic evaluation. Finally, an incision was also performed on the left side of the neck to expose the left carotid artery and an electronic dual pressure sensor catheter (Millar) was placed via arteriotomy and advanced into the left ventricle. The catheter was positioned to simultaneously collect left ventricle blood pressure measurements as well as aortic pressure. In addition, a temporary catheter was placed in any of the cephalic veins for administration of Lactated Ringers at 10 mL/kg/hr throughout the course of the experiment.
Following surgical preparation, hemodynamic and electrocardiographic parameters were allowed to stabilize for at least 15 minutes. The vehicle control and test article were then administered, and hemodynamic, electrocardiographic parameters were monitored. Histamine and plasma PK data was obtained.

sulcardine sulfate
heart rate (HR) change (relatively stable) (10 mg/kg): ≤ 10% | histamine levels (10 mg/kg): no appreciable increases | PR interval increase (10 mg/kg, per animal): +18% and +30% | increase of QRS from baseline (10 mg/kg, per animal): 11% and 26% | conduction abnormality (30 mg/kg infusion, animal 1501A): right bundle branch block (RBBB) | mean pulmonary arterial pressure increase (30 mg/kg, at the completion of infusion): up to +245% | conduction abnormality (90 mg/kg infusion / shortly before death, animal 1602B): sino-atrial block with a ventricular escape rhythm and RBBB | mortality (90 mg/kg, before completion of the 15-minute infusion): death in both animals | QRS interval increase from baseline (90 mg/kg, per animal): 88% and 133% | QTcB increase from baseline (90 mg/kg, per animal): 78 ms and 112 ms | PR interval increase (30 and 90 mg/kg): Further increases were noted | histamine levels (Animal No. 1501A, after 10 minutes of the 30 mg/kg infusion): transient increases | histamine levels (Animal No. 1602B, any dose levels): No appreciable increases
